Data: publication PMC6429200, “Synthesis and Broad Antiviral Activity of Novel 2-aryl-isoindolin-1-ones towards Diverse Enterovirus A71 Clinical Isolates” (Molecules, 2019)
Where “and” joins values, the source holds several entries; their conditions need not be identical. Equal values may be shown once.

Key:
[1] = Cytotoxicity assay (CPE) on Vero cells; type: cell-based; conditions: African green monkey; Vero cells, 3 days of incubation, Reed–Muench; read-out: CC50
Description: (§1) An in-vitro antiviral assay was established using the Africa monkey kidney cell line Vero which was infected with different EV-A71 clinical isolates (BrCr, H, Shenzhen98 and Jiangsu52). A total of 24 synthetic compounds were initially screened in such an assay to determine their inhibitory effect on virus replication at 3-fold diluted concentrations serial (400~0.18 μM). The 50% effective concentration (EC50) of each compound was calculated according to its inhibitory rate values with the Reed–Muench method. The 50% cytotoxic concentration (CC50) was defined as the concentration that inhibited 50% cellular growth in comparison with the controls. The selectivity index (SI) was calculated as CC50/EC50. […] Generally, the EV-A71 H strain was less sensitive to most of the active compounds as compared to the other virus strains.
African green monkey kidney (Vero) cells were purchased from the American Type Culture Collection (ATCC) and were cultured in minimum essential medium (MEM) supplemented with 10% fetal bovine serum (FBS) (GIBCO) and antibiotics (100 U/mL penicillin and […] streptomycin) at 37 °C in a 5% CO2 incubator.
The cytotoxic effects of compounds on Vero cells were detected by the cytopathic effect (CPE) assay. Briefly, cells (3 × 10^4 cells/well) were seeded into 96-well culture plates and incubated overnight. Then, the medium was removed and different concentrations of compounds were applied in triplicate. After 3 days of incubation, the CC50 was defined as the concentration that inhibited 50% cellular growth in comparison with the untreated controls, as calculated by the Reed–Muench method.

[2] = system: four EV-A71 strains (BrCr, H, Shenzhen98, Jiangsu52); assay: CPE inhibition assay, summary over four EV-A71 strains; type: cell-based, Enterovirus 71 (EV-A71)
Description: as §1
The anti-EV-A71 activity of compounds was determined by the CPE inhibition method. Briefly, cells (3 × 10^4 cells/well) were plated into 96-well culture plates for incubation for 24 h. The medium was then removed and cells were infected with EV-A71 with 100TCID50 (50% tissue culture infective doses) in serum-free medium for 1 h at 37 °C. Then, the unbound viruses were removed and various concentrations of compounds were supplemented and incubated for another 48 h. The EC50 was determined by the Reed–Muench method. The selectivity index was calculated as the ratio of CC50/EC50 [15].

[3] = system: EV-A71 (H strain) VP1 RNA; assay: qRT-PCR of VP1 RNA in infected Vero cells; type: cell-based, Enterovirus 71 (EV-A71); conditions: H strain MOI = 0.1, 1 h infection then A3 for 24 h, RT-qPCR
Description: (§2) To further confirm the anti-EV-A71 activity, the expression levels of VP1 RNA and protein were determined. Vero cells were infected with the H strain of EV-A71 for 1 h followed by treatment with A3 of various concentrations for another 24 h. […] Meanwhile, the antiviral efficacy of A3 was also tested using viral titer reduction assays.
Vero cells (9 × 10^5cells/well) were plated into 6-well culture plates for incubation for 16 h. The medium was removed and cells were infected with EV-A71 (H, MOI = 0.1). After 1 h, various concentrations of A3 were supplemented and incubated for another 24 h. The total RNA of the infected cells was extracted using the RNeasy Mini kit (QIAGEN) according to the manufacturer’s instructions. […] The RNA expression of EV-A71 VP1 was detected with the sense primer 5′-GATATCCCACATTCGGTGA-3′ and the antisense primer 5′-[…] -3′ targeting a conserved region of the VP1 gene. β-Actin mRNA was detected using the sense primers 5′-TGACGGGGT CACCCACA CTGTGCCCATCTA-3′ and the antisense primer 5′-CTAGAAGCATTTG CGGTGGACG ATG-3′. […] The relative amounts of EV-A71 VP1 mRNA were calculated by the comparative Ct method after normalizing the quantity of β-actin [15].
Figure 2 Compound A3 inhibited EV-A71 replication in vitro. […] Intracellular viral VP1 protein (A) and RNA (B) were determined by Western blot and qRT-PCR assays, respectively. […]

EV-A71 [4] = assay: Viral titer reduction assay; type: cell-based, Enterovirus 71 (EV-A71); conditions: cells treated after EV-A71 infection
Description: as §2
Figure 2 Compound A3 inhibited EV-A71 replication in vitro. Vero cells (9 × 10^5 cells/well) were plated into 6-well culture plates and infected with EV-A71 (multiplicity of infection, MOI = 0.1) for 1 h. The infected cells were then treated with the indicated concentrations of A3 for 24 h. Intracellular viral VP1 protein (A) and RNA (B) were determined by Western blot and qRT-PCR assays, respectively. (C) The inhibition of a viral titer by A3. ** p < 0.01 * p < 0.05.

EV-A71 [5] = assay: Time-of-addition assay (VP1 Western blot) in Vero cells; type: cell-based, Enterovirus 71 (EV-A71)
Description: In order to explore the inhibitory effect of compound A3 on the EV-A71 viral life cycle, EV-A71 viral protein VP1 was measured via Western blot when Vero cells were treated with compound A3 prior to, during, or after EV-A71 viral incubation (Figure 3). […] It is likely that compound A3 inhibits the EV-A71 replication by acting on the virus entry stage.
The antiviral activity of the tested compound was examined at different time periods prior to, during or after viral infection. Briefly, Vero cells (9 × 10^5 cells/well) were inoculated with EV-A71 (MOI = 1.0) at 37 °C for 1 h. The media with or without treatment were added during the periods of −24~0 h, −1~0 h, 0~10 h, 1~10 h, 2~10 h, 4~10 h, 6~10 h and 8~10 h. After each incubation period, the collected cells were washed with PBS, and then the viral protein was determined by Western blot.
Figure 3 Time-of-addition analysis of Vero cells with compound A3 treatment prior to, during or after EV-A71 infection. (A) Schematic illustration of experiment to determine which stage of EV-A71 viral cycle was inhibited by compound A3 in Vero cells. […] For all experiments, the collected cells were washed with PBS after 10 h post viral infection, and viral VP1 expression was determined via Western blot assay.

Structure (SMILES): O=C1c2ccccc2CN1c1ccc(Cl)cc1 [Compound A3, 2-(4-chlorophenyl)isoindolin-1-one]
- CC50 at 3 days [1]: 257 ± 35.3 µM
- SI towards four EV-A71 strains ([2]; CC50/EC50, range over four strains): 168-199 and 98–199
- IC50 ([2]; Enterovirus A, EV71 / EVA71, read-out: Anti-EV71 IC50): 1.29 to 1.53 µM
- EC50 ([2]; Enterovirus A, EVA71, Vero, read-out: EC50 towards four EV-A71 strains): 1.23 to 1.76 µM
- EC50 fold higher than pirodavir ([2]; relative to reference compound pirodavir): 2–4 fold
- VP1 RNA expression level [3]: significantly reduced VP1 RNA expression level in a dose-dependent way
- viral titers (EV-A71 [4]): dose-dependent reduction in viral titers
- EV-A71 VP1 expression in Vero cells (EV-A71 [5]; A3 4 μM at 0, 1 and 2 h after infection (MOI = 1.0), cells collected 10 h post infection, not at the other time periods): significantly decreased
- time-of-addition: effect of pretreatment (EV-A71 [5]; A3 added 24 or 1 h prior to infection): did not display any resistance to infection by EV-A71
- time-of-addition: efficacy, addition after infection (EV-A71 [5]; A3 added at 1 or 2 h after EV-A71 infection): significant efficacy
- time-of-addition: inhibitory activity, addition during inoculation (EV-A71 [5]; A3 added during the inoculation of the virus): maximum inhibitory activity
